Experimental data reported in patent publication US20150322001A1, “OMEGA-3 ANALOGUES” (The University of Sydney, priority 2012, published 2015).

Experiments:
MDA-MB-231 cells [1] = assay: MTT assay, inhibition of proliferation of MDA-MB-231 cells; assay type: cell-based, human; conditions: MTT reduction, 24 h
Method: The synthesized compounds given in Table 1 were tested for their activity in inhibiting the proliferation of MDA-MB-231 cells.
• 1. Cell culture and cell treatment: Breast cancer MDA-MB-231 cells were maintained in monolayers at 37° C. in DMEM containing penicillin and streptomycin, L-glutamine and 10% fetal bovine serum in an atmosphere of 95% air and 5% CO2. Cells were seeded into multi-well plates at 5×10^4 cells/mL; media was replaced 24 h later with fresh serum-free DMEM containing one of the test compounds in DMSO. DMSO was added to control cells at a final concentration of 0.1%. • 2. MTT assay: MDA-MB-231 cells were seeded in 96 well plates (0.2 mL/well), treated with compounds at 0.01, 0.1, 0.5, 1, 5 and 10 μM for 24 h. MTT (25 μL of 2.5 mg/mL solution) was added to each well for 2 h, after which MTT and media were removed. The blue formazan product formed from MTT by live cells was dissolved in DMSO (100 μL/well) and quantified spectrophotometrically at 540 nm in a multilabel counter. IC50s were calculated using GraphPad Prism (Prism 5.01). • 3. Caspase 3 activity: MDA-MB-231 cells were seeded in 96 well plates (0.2 mL/well), and were treated with compounds at 0.1, 0.5 and 1 μM for 24 h. Caspase 3 activity was quantified using the Caspase-Glo 3/7 assay kit according to manufacturer's protocol (Promega). Briefly, after 24 h treatment, fresh serum-free media was added to wells. Cells were equilibrated at room temperature for 30 min, caspase 3/7 substrate in lysis buffer was added and the luminescence was measured. Relative caspase 3/7 activity was calculated as [(luminescence in treatment−luminescence in control)/luminescence in control×100%]. • 4. Annexin V assay: MDA-MB-231 cells were seeded in 6 well plates (3 mL/well), and were treated with compounds at 0.1, 0.5 and 1 μM for 24 h. The apoptotic cells were quantified by Annexin V staining according to the manufacture's protocol (BD Biosciences). Briefly, after 24 h treatment, the media and harvested cells were collected, followed by PBS washes. Cells were stained with Annexin V and PI in binding buffer for 15 min at room temperature and quantified by flow cytometry (BD Biosciences). The apoptotic cells (%) were calculated as [(Annexin V positive cells in treatment−Annexin V positive cells in control)/Annexin V positive cells in control×100%]. • 5. Matrigel assay: MDA-MB-231 cells were trypsinized and resuspended in serum-free DMEM media (3.5×10^6 cells/mL). The cell suspension was mixed 1:1 with Matrigel solution (Bio Scientific). Aliquots (20 μL containing 3.5×10^4 cells) were placed into 6-well tissue-culture dishes to form well-defined droplets and incubated at 37° C. for 5 min to enable semi-solidification. Migration media was freshly made as DMEM containing 20% fetal bovine serum, epidermal growth factor 10 pg/mL, hydrocortisone 0.4 ng/mL, vascular endothelial growth factor (VEGF, 1 pg/mL), basic fibroblast growth factor (bFGF, 20 pg/mL), insulin-like growth factor-1 (40 pg/mL), ascorbic acid (2 ng/mL) and heparin (45 ng/mL). Compounds were added in migration media (3 mL/well) and plates were then incubated for 24 h. Cells that migrated out of droplets were scored using phase-contrast microscopy and digital image analysis (Olympus). • 6. Real-time RT PCR: Cell droplets from migration assays were collected, and total RNA was extracted using Tri Reagent (Astral Scientific) according to the manufacturer's protocol. RNA samples were treated with DNase (Promega) and gene expression was quantified using an Express Onestep Superscript qRT-PCT kit (Invitrogen) and gene-specific primers: heparanase (forward) […] and (reverse) GCAGCAACTTTGGCATTTC, integrin-α3 (forward) […] and (reverse) […], actin (forward) […] and (reverse) […]. The cycling conditions (Roto-Gene™ 6000; Corbett Research) were as follows: 95° C. (15 min); 40 cycles of denaturation (95° C., 30 s); annealing (60° C., 1 min); elongation (72° C., 1 min). […]

[2] = tested on: human MDA-MB-231 breast cancer cell xenografts; assay: In vivo dose-response study of compound 29, MDA-MB-231 xenografts in nude mice; conditions: for toxicity of the treatment (growth rates): all dose groups
Method: One of the synthesised compounds given in Table 1 (compound 29, reproduced below) was the subject of an in vivo dose-response study in nude mice with human MDA-MB-231 breast cancer cell xenografts. One group received compound 15 in parallel.
nu/nu Balb/c; Age: 6 weeks at commencement of study; Gender: female
control, compound 29 (2.5 mg/kg), compound 29 (10 mg/kg), compound 29 (40 mg/kg) and compound 15 (10 mg/kg); 5 mice/group
human MDA-MB-231 cells, 4×10^5 cells/100 μl (Matrigel:PBS 1:1)/mouse, subcutaneous injection into the 4th mammary fat pad.
after 4 days animals received compound 29 at 40, 10 and 2.5 mg/kg doses (in corn oil, Sigma, and 8% DMSO), or compound 15 at 10 mg/kg in corn oil at 4% DMSO, 6 days each week, for 38 days. Control: 8% DMSO in corn oil.
weighed six days a week; tumour sizes measured with calipers every 3 to 4 days.

MDA-MB-231 cells [3] = assay: Proapoptotic activity in MDA-MB-231 cells (JC-1 staining, confluence); assay type: cell-based, human
Method: Several of the compounds were tested for the capacity to induce apoptosis in MDA-MB-231 cells (10 μM, 24 hr treatments). […] In view of the finding with compound 29 a concentration-relationship was developed with caspase-3/7 activity (an established marker of apoptosis) as the endpoint (FIG. 11).

[4] = tested on: MDA-MB-231 breast cancer cell xenografts; assay: In vivo evaluation of compound 15, MDA-MB-231 xenografts in nude mice; conditions: 10 mg/kg intraperitoneally, 39 days
Method: One of the synthesised compounds given in Table 1 (compound 15, reproduced below) was tested for its activity in inhibiting the proliferation of MDA-MB-231 breast cancer cell xenografts in nude mice.
female nu/nu Balb/c mice of 5-6 weeks age at the commencement of the experiment (one week acclimatization after arrival in the animal facility).
two groups of 8 mice each.
MDA-MB-231 cells, 4×10^5 cells/100 μL (Matrigel:phosphate-buffered saline, 1:1) per mouse; subcutaneous injection into the mammary pad.
4 days after cancer cell xenografting compound 15 was administered intraperitoneally at a dose of 10 mg/kg in corn oil (Sigma, containing 2% dimethylsulfoxide). Dosing continued for 6 days per week, for a total of 39 days. Control animals received 2% dimethylsulfoxide in corn oil, 100 μL per 20 g mouse for the same duration.
Body weights were measured daily and tumour sizes every three days (with calipers).

IC50 (MDA-MB-231 cells [1]; Homo sapiens) [nM] | Molecule | further results
1000 | O=C(O)CCCCCCCCCCCCCCCNC(=O)Nc1ccc(F)cc1 [Compound 12, 16-{[(4-fluorophenyl)carbamoyl]amino}hexadecanoic acid] | –
1200 | O=C(O)CCCCCCCCCCCCCCCNC(=O)Nc1ccc(Cl)c(Cl)c1 [Compound 28, 16-{[(3,4-dichlorophenyl)carbamoyl]amino}hexadecanoic acid] | –
80 ± 10 | CCOC(=O)CCCCCCCCCCCCCCCNC(=O)Nc1ccc(Cl)cc1 [Compound 13, Ethyl 16-{[(4-chlorophenyl)carbamoyl]amino}hexadecanoate] | –
850 ± 20 | CCOC(=O)CCCCCCCCCCCCCCCNC(=O)NC1CCCCC1 [Compound 1] | –
2780 ± 190 | O=C(O)CCCCCCCCCCCCCCCNC(=O)NC1CCCCC1 [Compound 5, 16-[(cyclohexylcarbamoyl)amino]hexadecanoic acid] | –
720 ± 10 | O=C(O)CCCCCCCCCCCCCCCNC(=O)NCc1ccccc1 [Compound 8, 16-[(benzylcarbamoyl)amino]hexadecanoic acid] | –
1220 ± 80 | CC(C)(C)NC(=O)NCCCCCCCCCCCCCCCC(=O)O [Compound 7, 16-[(tert-butylcarbamoyl)amino]hexadecanoic acid] | –
760 ± 70 | CCOC(=O)CCCCCCCCCCCCCCCNC(=O)Nc1ccc(F)cc1 [Compound 11, Ethyl 16-{[(4-fluorophenyl)carbamoyl]amino}hexadecanoate] | –
2750 ± 270 | CCOC(=O)CCCCCCCCCCCCCCCNC(=O)NC12CC3CC(CC(C3)C1)C2 [Compound 17, Ethyl 16-[(tricyclo[3.3.1.1^3,7]dec-1-ylcarbamoyl)amino]hexadecanoate] | –
– | 16-{[(4-methoxyphenyl)carbamoyl]amino}hexadecanoic acid [Compound 24] | IC50 (MDA-MB-231 cells [1]): 1300 nM
1110 ± 260 | CCOC(=O)CCCCCCCCCCCCCCCNC(=O)NCCc1ccccc1 [Compound 2, Ethyl 16-{[(2-phenylethyl)carbamoyl]amino}hexadecanoate] | –
1500 ± 80 | O=C(O)CCCCCCCCCCCCCCCNC(=O)NCCc1ccccc1 [Compound 3, 16-{[(2-phenylethyl)carbamoyl]amino}hexadecanoic acid] | –
6920 ± 310 | CCOC(=O)CCCCCCCCCCCCCCCNC(=O)NC(C)(C)C [Compound 4, Ethyl 16-[(tert-butylcarbamoyl)amino]hexadecanoate] | –
1590 ± 280 | CCOC(=O)CCCCCCCCCCCCCCCNC(=O)Nc1ccccc1 [Compound 9, Ethyl 16-[(phenylcarbamoyl)amino]hexadecanoate] | –
660 ± 30 | CCNC(=O)NCCCCCCCCCCCCCCCC(=O)OCC [Compound 20, Ethyl 16-[(ethylcarbamoyl)amino]hexadecanoate] | –
1200 | O=C(O)CCCCCCCCCCCCCCCNC(=O)Nc1ccccc1 [Compound 6, 16-[(phenylcarbamoyl)amino]hexadecanoic acid] | –
1000 | O=C(O)CCCCCCCCCCCCCCCNC(=O)Nc1ccc(I)cc1 [Compound 26, 16-{[(4-iodophenyl)carbamoyl]amino}hexadecanoic acid] | –
810 | O=C(O)CCCCCCCCCCCCCCCNC(=O)Nc1ccc(Cl)cc1 [Compound 14, 16-{[(4-chlorophenyl)carbamoyl]amino}hexadecanoic acid] | –
870 ± 80 | CCOC(=O)CCCCCCCCCCCCCCCNC(=O)NCc1ccccc1 [Compound 10, Ethyl 16[(benzylcarbamoyl)amino]hexadecanoate] | –

Molecule | IC50 (MDA-MB-231 cells [1]; Homo sapiens) [nM] | further results
O=C(O)CCCCCCCCCCCCCCCNC(=O)Nc1ccc(Cl)c(C(F)(F)F)c1 [Compound 29, 16-({[4-chloro-3-(trifluoromethyl)phenyl]carbamoyl)amino}hexadecanoic acid] | 1100 | tumour growth rate and volume at later time points (after day 25) ([2]; 2.5 mg/kg, FIG. 9): larger than the compound 29 (40 mg/kg) group; tumour growth ([2]; 10 mg/kg, FIG. 9): decreased from day 32; tumour weights versus control and 2.5 mg/kg groups ([2]; 40 mg/kg, day 38): significantly smaller; tumour volumes versus control and 2.5 mg/kg groups ([2]; 40 mg/kg, day 38, FIG. 9): significantly smaller; toxicity of the treatment (growth rates) ([2]; 38 days): non-toxic; mouse body weight gain or loss ([2]; compound 29 2.5 mg/kg, 38 days, FIG. 7): gained weight at a steady and similar rate; mouse body weight gain or loss ([2]; compound 29 10 mg/kg, 38 days, FIG. 7): gained weight at a steady and similar rate; mouse body weight gain or loss ([2]; compound 29 40 mg/kg, 38 days, FIG. 7): gained weight at a steady and similar rate; tumour foci in the peritoneal cavity ([2]; compound 29-treated mice (2.5, 10, 40 mg/kg), 38 days): No tumour foci were seen; JC-1 staining (mitochondrial damage) (MDA-MB-231 cells [3]; 10 μM, 24 hr, FIG. 10): Increased JC-1 staining; confluence of treated cells (MDA-MB-231 cells [3]; FIG. 12): decreased confluence
CCOC(=O)CCCCCCCCCCCCCCCNC(=O)Nc1ccc(C)cc1 [Compound 15, Ethyl 16-{[(4-methylphenyl)carbamoyl]amino}hexadecanoate] | 20 | dose limiting toxicity ([4]; 6 days per week): no dose limiting toxicity; mouse body weight loss ([4]; 6 days per week, FIG. 4): greater with compound 15 than control; tumour metastasis [4]: appears to suppress tumour metastasis; primary tumour growth (growth rate and volume) ([4]; FIG. 5): did not prevent primary tumour growth; mice with white small foci in the abdominal cavity ([4]; controls 7/8): 1/8; toxicity of the treatment (growth rates) ([2]; 38 days): non-toxic; mouse body weight gain or loss ([2]; compound 15 10 mg/kg IP, 38 days, FIG. 8): lost weight at the early stage of IP injections
